# Results: a melting point compilation (Tetko et al.; mined from patent text by program, amines drawn as free bases though some values may be those of a salt)
row,melting point [°C],SMILES
1,41 to 42,CCc1cc2cc(F)ccc2[nH]1
2,161 to 162,CC1(c2cccs2)Cc2cc(OCC(=O)O)c(Cl)c(Cl)c2C1=O (configuration not stated)
3,85 to 90,Cc1cccc(C2COc3cc(O)ccc3C2c2ccc(OCCN3CCCC3)cc2)c1 (configuration not stated)
4,125 to 127,CN(C)CN=c1[nH]c2cnccc2s1
5,140 to 145,CCCS(=O)(=O)Oc1c(C(=O)c2ccc3c(c2C)C(SCC)CCS3(=O)=O)cnn1CC (configuration not stated)
6,84 to 88,CC(=O)OCCN(C(=O)CBr)c1ccc(Cl)cc1C(=O)c1ccccc1F
7,187 to 190,COC(=O)NC1=NCC(c2cccc3ccccc23)N1C (configuration not stated)
8,49.7 to 50.9,C[C@@H]1CC(=O)O[C@H](CCc2ccccc2)O1
9,227 to 229,COc1cccc(-n2nc(C(=O)O)c3csc(N)c3c2=O)c1
10,239 to 240,O=C(O)Cc1c(C(=O)c2cc3ccccc3cn2)[nH]c2ccc(Cl)cc12
11,65 to 66,Cc1ccc(C2COc3c(C)c(C)cc(C)c32)cc1 (configuration not stated)
12,193 to 194,N=C(N)Nc1nc(CSCCC(N)=O)cs1
13,145 to 153,COc1cc2c(c(C(=O)O)c1OC)CCN(Cc1ccccc1)CC2c1ccccc1 (configuration not stated)
14,102 to 103,CCCN(C1CC(C)(C)Oc2ccc(OCc3ccccc3)cc21)S(=O)(=O)CC (configuration not stated)
15,153,O=c1cc(-c2ccc(OCc3ccccc3)c(OCc3ccccc3)c2)oc2cc(OCCCCl)ccc12
16,234,Cc1nc2c(O)c(CCC(=O)c3cccs3)c(C(=O)N(C)C)cn2c1C
17,194 to 195,Cn1cc(-c2cccc(C(F)(F)F)c2)c(=O)c(C2CC=CCC2)c1 (configuration not stated)
18,256 to 258,CCc1cccc2c1[nH]c1c2ccc2cc[nH]c21
19,117 to 118,O=C(O)CC(CC(=O)Nc1cc(OCC=C(Cl)Cl)c(Cl)cc1F)C(F)(F)F (configuration not stated)
20,159 to 161,CN1CCc2c(sc3ncn(CCCl)c(=O)c23)C1
21,250 to 252,O=C(O)COc1cccc2c1CCc1sc(NC(c3ccccc3)c3ccccc3)nc1-2
22,218 to 220,CSc1ccc(C(=O)NCc2ccc3c(c2)C(=O)N(C2(C)CCC(=O)NC2=O)C3=O)cc1 (configuration not stated)
23,154 to 157,Cc1cc([N+](=O)[O-])c(O)c2c1CCC2=O

row,melting point [°C],SMILES
1,265 to 267,COc1ccc(C(=O)Oc2ccc(C(=O)O)cc2)cc1C12CC3CC(CC(C3)C1)C2
2,114 to 115,O=S(=O)(NCC1CCC(NCC2CCc3ccccc3C2)CC1)c1ccc2ccccc2c1 (configuration not stated)
3,292 to 293,Nc1cccc(Sc2cccc3c2C(=O)c2cccc(Sc4cccc(N)c4)c2C3=O)c1
4,115 to 116,O=C(OCC=Cc1ccccc1)C(=C1NCCCS1)[N+](=O)[O-]
5,160,CC(=O)OC1CSC(Sc2ccc(C(F)(F)F)cc2)C(OC(C)=O)C1OC(C)=O (configuration not stated)
6,156 to 158,CCOC(C[C@@H](CO)Cn1cnc2c(Cl)nc(N)nc21)OCC
7,107 to 110,CC(C)C=C(C=NO)c1ccccc1
8,305,Cc1nc2c(s1)C=Cc1cc(Cl)ccc1C2c1cn(C)c(=O)[nH]c1=S (configuration not stated)
9,138 to 139,CCS(=O)(=O)Nc1cc(-c2ncnc(C(F)F)c2Cl)c(F)cc1Cl
10,81 to 83,COC(=O)CC1(O)CC2CCC1(CS(=O)(=O)N1CCC3(C=Cc4ccccc43)CC1)C2(C)C (configuration not stated)
11,167 to 169,O=C1c2ccccc2C(=O)c2c(NCC(O)CCl)ccc(NCC(O)CCl)c21 (configuration not stated)
12,78 to 80,CCOC(=O)c1c(S(N)=O)c2ccccc2n1CC (configuration not stated)
13,142 to 143,CN(Cc1cc(C(F)(F)F)cc(C(F)(F)F)c1)C(=O)c1nc(Cl)c2ccccc2c1-c1ccc(F)cc1
14,194 to 196,Oc1c(Cl)cc2c(-c3ccccc3F)noc2c1Cl
15,166 to 168,O=C(Nc1cc(-c2ccnc3c(C(=O)c4cccs4)cnn23)ccc1F)c1ccccc1Cl
16,204 to 209,O=c1c(Cc2cccnc2)cn2c3cc(F)ccc3c3cc(OCCCO)cc1c32
17,82 to 83,COC(=O)C=C1NC(Cc2ccccc2)COC1=O (configuration not stated)
18,252,O=c1[nH]c2ccc([N+](=O)[O-])cc2s1
19,138 to 140,CCCCCCN(CCCCCC)C(Nc1ccc(-c2ccccc2)cc1)=C1C(=O)COC1=O
20,180 to 186,N=C(NO)c1cc(C(F)(F)F)cc(-c2ccc(Cl)cc2)n1
21,141 to 143,CC[C@H]1CC[C@H](CCc2ccc(C(=O)CCC(=O)O)cc2)CC1
22,40 to 44,O=C1CCC(Cc2ccccc2)CC1
23,125 to 127,CCCCc1nn(-c2cc([N+](=O)[O-])ccc2Br)c(=O)[nH]1

row,melting point [°C],SMILES
1,190 to 193,Cn1cc(C2c3ccc(Cl)cc3C=Cc3sc(OCCn4ccnc4)nc32)c(=S)[nH]c1=O (configuration not stated)
2,142 to 143,COc1ccccc1Cc1ccc(=O)[nH]n1
3,60.5 to 62,COCc1cc(C2=C(Cl)CCN(C(=O)c3ccccc3)C2)no1
4,87 to 88,Fc1ccc(F)c(CC2CCN(C3CC=C(c4ccc5c(c4)OCO5)CC3)CC2)c1 (configuration not stated)
5,218 to 223,O=C(/C=C/c1ccc2ccccc2c1)Nc1cc(Cl)ccc1OCc1nnn[nH]1
6,125,CCOC(=O)c1cc(OCc2ccccc2)c2ccc(C#N)cc2c1
7,127 to 129,CCCc1c(C(=O)OCC)nc2ccccc2c1OCc1ccccc1
8,114 to 116,CC1Cc2ccccc2CN(CO)C1=O (configuration not stated)
9,124 to 125,CC(O)c1ncnc(N2CCN(S(=O)(=O)N(C)C)CC2)n1 (configuration not stated)
10,297 to 299,CSc1nnc(C2C(=O)N(C(N)=O)c3ccc(Cl)cc32)o1 (configuration not stated)
11,196 to 200,CN1C(=O)C(C(=O)Nc2cccc(C(F)(F)F)c2)S(=O)(=O)c2ccc(Cl)cc21 (configuration not stated)
12,60 to 67,CC(C)=CCOC(C)C1CC=C2C3=C(CCC21C)C1(C)CCC(OC(=O)CCC(=O)O)C(C)(C)C1CC3 (configuration not stated)
13,144 to 146,O=S(=O)(Nc1cccc(OCc2ccc3ccccc3n2)c1)C(F)(F)F
14,> 270,O=C(O)Cn1c(C(=O)O)cc(=O)c2c1C(=O)C(O)=C2
15,57 to 60,CCSC(C)(C)C(=O)CC(=O)Nc1cc(NC(=O)CCCOc2ccc(C(C)(C)CC)cc2C(C)(C)CC)ccc1OC
16,191 to 192,O=c1[nH]cnc(C(F)(F)F)c1Cl
17,93 to 94,CCOC(=O)CCc1cn(Cc2ccc(OCc3nc(-c4ccccc4)oc3C)cc2)nc1-c1ccc(F)cc1
18,110 to 111,COc1cc(CCCC2OC(=O)NC2=O)ccc1OCc1nc(-c2ccccc2)no1 (configuration not stated)
19,126 to 128,CCOC(=O)c1ccc(CCC(=O)O)[nH]1
20,119 to 120,CCCCCN1CC[C@@H](c2ccccc2Br)[C@H](CO)C1 (racemic)
21,160 to 161,CC(C)CC(=O)c1c(-c2ccc3cc(O)cc(Br)c3c2)oc2ccccc12
22,189 to 191,C[C@]12CCC(=O)N[C@@H]1CCc1cc(-c3ccccc3Cl)ccc12
23,295,Cn1c2ccc(F)cc2c(=O)n2nc(C(=O)O)cc12

row,SMILES,melting point [°C]
1,CS(=O)(=O)c1ncc2n1-c1ccc(Cl)cc1C(c1ccccc1F)=[N+]([O-])C2,219 to 220
2,CCCCCCCC(=O)c1cn(CCCC(=O)O)c2ccccc12,100 to 102
3,CCCCCCCCCCN1C(=O)C2C3CCC(O3)C2C1=O (configuration not stated),30 to 31
